Test results taken from paper PMC9177823 (Journal of molecular biology, 2022).

Biological target: MelBSt; Salmonella typhimurium melibiose permease (Salmonella enterica, UniProt P30878)
Experiment: CD thermal denaturation at […] nm, purified in DDM
Type: binding
Details: 50 mM melibiose, 100 mM LiCl, 20 mM NaPi pH 7.5, 10% glycerol, 0.01% DDM

Sequence of MelBSt; Salmonella typhimurium melibiose permease (P30878 whole entry): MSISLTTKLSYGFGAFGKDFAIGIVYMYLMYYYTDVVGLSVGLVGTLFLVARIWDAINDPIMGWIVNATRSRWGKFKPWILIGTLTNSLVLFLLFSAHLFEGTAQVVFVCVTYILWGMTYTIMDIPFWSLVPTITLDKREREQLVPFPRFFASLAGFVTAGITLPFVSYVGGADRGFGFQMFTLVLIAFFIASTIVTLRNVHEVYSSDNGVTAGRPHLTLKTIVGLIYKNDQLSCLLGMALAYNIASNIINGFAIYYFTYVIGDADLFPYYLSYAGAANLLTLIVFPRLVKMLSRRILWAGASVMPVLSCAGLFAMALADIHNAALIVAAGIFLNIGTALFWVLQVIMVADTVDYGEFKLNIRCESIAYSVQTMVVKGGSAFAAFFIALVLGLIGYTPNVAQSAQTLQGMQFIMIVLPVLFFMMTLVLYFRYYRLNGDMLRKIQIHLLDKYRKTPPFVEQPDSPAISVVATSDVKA

OC[C@H]1O[C@H](OC[C@H]2OC(O)[C@H](O)[C@@H](O)[C@@H]2O)[C@H](O)[C@@H](O)[C@H]1O (stereo partly shown) [melibiose]
WT: 63.87 ± 0.04 °C
